The results in this text go back to patent US20260356851A1, “TRICYCLIC COMPOUNDS AND USES THEREOF” (HUTCHMED LIMITED, priority 2023, published 2026).

Common to all, as to format: cell-based
Assay [1] concerns the target T1, pERK1/2 (Thr202/Tyr204), PANC-1 (KRAS G121D) (Homo sapiens, UniProt P01116, G12D).
T1 construct: pERK1/2 HTRF read-out
The assay can be described thus: Assay of intracellular pERK1/2 (Thr202/Tyr204) phosphorylation in PANC-1 cells (KRAS G12D). The conditions noted are these: pERK1/2, 2 days, read-out: PANC-1 (KRAS G12D) IC50. The procedure, abridged: (§1)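 HTRF detection of Thr202/Tyr204-phosphorylated ERK1/2 (665/615 nm ratio) in lysates from cells treated 2 days with serially 3-fold diluted compound.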

Assay [2] deals with T2, pERK1/2 (Thr202/Tyr204), NCI-1H358 (KRAS G12C) (Homo sapiens, UniProt P01116, G12C).
T2 construct: pERK1/2 HTRF read-out
The assay is described as follows: Assay of intracellular pERK1/2 (Thr202/Tyr204) phosphorylation in NCI-H358 cells (KRAS G12C). To be noted: pERK1/2, 2 days, read-out: NCI-H358 (KRAS G12C) IC50. An outline of the steps:
as §1

The target of assay [3] is T3, pERK1/2 (Thr202/Tyr204), NCI-1H441 (KRAS G12V) (Homo sapiens, UniProt P01116, G12V).
T3 construct: pERK1/2 HTRF read-out
The assay can be described thus: Assay of intracellular pERK1/2 (Thr202/Tyr204) phosphorylation in NCI-H441 cells (KRAS G12V). The conditions noted are these: pERK1/2, 2 days, read-out: NCI-H441 (KRAS G12V) IC50. The procedure, abridged: as §1

Where only a bound is given, the exact number is not on record here.

T3 sequence (P01116 1-188 isoform P01116-2 G12V): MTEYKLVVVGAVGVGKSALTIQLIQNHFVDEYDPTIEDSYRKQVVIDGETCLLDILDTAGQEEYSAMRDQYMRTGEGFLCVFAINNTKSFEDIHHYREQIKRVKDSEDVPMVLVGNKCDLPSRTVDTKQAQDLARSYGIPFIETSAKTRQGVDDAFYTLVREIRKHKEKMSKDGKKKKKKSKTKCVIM
T2 sequence (P01116 1-188 isoform P01116-2 G12C): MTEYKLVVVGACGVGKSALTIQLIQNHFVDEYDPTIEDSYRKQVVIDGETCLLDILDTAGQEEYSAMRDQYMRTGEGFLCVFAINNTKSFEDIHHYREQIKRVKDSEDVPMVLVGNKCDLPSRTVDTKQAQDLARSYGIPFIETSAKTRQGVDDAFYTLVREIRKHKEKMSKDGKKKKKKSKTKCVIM
T1 sequence (P01116 1-188 isoform P01116-2 G12D): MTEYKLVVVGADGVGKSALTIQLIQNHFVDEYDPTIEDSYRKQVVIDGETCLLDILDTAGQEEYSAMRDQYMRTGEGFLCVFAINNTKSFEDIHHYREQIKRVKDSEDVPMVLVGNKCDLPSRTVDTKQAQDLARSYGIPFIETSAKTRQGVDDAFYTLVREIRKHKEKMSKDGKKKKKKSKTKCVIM

By IC50 is commonly meant the midpoint of a concentration-inhibition curve. As for `CC(c1cccnc1N)N1c2nc(OC[C@@]34CCCN3C[C@H](F)C4)nc3c(F)c(-n4nc(N)c5ccccc54)nc(c23)OC[C@@H]1C` (stereo partly drawn) [Compound 336, (*)1-((9S)-10-(1-(2-aminopyridin-3-yl)ethyl)-4-fluoro-2-(((2R,7aS)-2-fluorotetrahydro-1H-pyrrolizin-7a(5H)-yl)methoxy)-9-methyl-9,10-dihydro-8H-7-oxa-1,3,6,10-tetraazacyclohepta[de]naphthalen-5-yl)-1H-indazol-3-amine], the IC50 in assay [1], in assay [2] and in assay [3] was above 100000 pM throughout.
On to `CC(c1cccnc1N)N1c2nc(OC[C@@]34CCCN3C[C@H](F)C4)nc3c(F)c(-c4c(C(F)(F)F)ccc5ncccc45)nc(c23)OC[C@@H]1C` (stereo partly drawn) [Compound 337], for which the IC50 in assay [1], in assay [2] and in assay [3] was above 100000 pM each time.
As for `Cc1cc(F)c2sc(N)nc2c1-c1nc2c3c(nc(OC[C@@]45CCCN4C[C@H](F)C5)nc3c1F)N(C(C)c1cccnc1N)[C@@H](C)CO2` (stereo partly drawn) [Compound 340], the IC50 in assay [1] worked out at 39000 pM; in assay [2] it was 2000 pM; in assay [3] it was 4000 pM.
The like results for `Cc1cc2[nH]ncc2c(-c2nc3c4c(nc(OC[C@@]56CCCN5C[C@H](F)C6)nc4c2F)N([C@H](C)c2cc(F)cnc2N)[C@@H](C)CO3)c1C(F)(F)F` [Compound 342] were, in that order, 300 pM, 200 pM and 400 pM.
For the compound `CC(c1cccnc1N)N1c2nc(OC[C@@]34CCCN3C[C@H](F)C4)nc3c(F)c(-c4c5c(cc6[nH]ncc46)CCC5)nc(c23)OC[C@@H]1C` (stereo partly drawn) [Compound 343], the values for the IC50 in assay [1], in assay [2] and in assay [3] were 2000 pM, 200 pM and 600 pM, respectively.
`CC(c1cccnc1N)N1c2nc(OC[C@@]34CCCN3C[C@H](F)C4)nc3c(F)c(-c4c5ccccc5cc5[nH]ncc45)nc(c23)OC[C@@H]1C` (stereo partly drawn) [Compound 348]: the IC50 was 500 pM in assay [1], 200 pM in assay [2] and 500 pM in assay [3].
Consider `CC(c1cccnc1N)N1c2nc(OC[C@@]34CCCN3C[C@H](F)C4)nc3c(F)c(-c4cc(=O)[nH]c5ccccc45)nc(c23)OC[C@@H]1C` (stereo partly drawn) [Compound 360], for which the IC50 in assay [1], in assay [2] and in assay [3] was above 100000 pM each time.
For the compound `CC(c1cccnc1N)N1c2nc(OC[C@@]34CCCN3C[C@H](F)C4)nc3c(F)c(-c4c5cn[nH]c5cc5cccc(F)c45)nc(c23)OC[C@@H]1C` (stereo partly drawn) [Compound 362], the results for the IC50 in assay [1], in assay [2] and in assay [3] were 400 pM, 200 pM and 300 pM, respectively.
The like results for `Cc1c(C(F)(F)F)c(-c2nc3c4c(nc(OC[C@@]56CCCN5C[C@H](F)C6)nc4c2F)N(C(C)c2cccnc2N)[C@@H](C)CO3)c2cn[nH]c2c1F` (stereo partly drawn) [Compound 363] were, in that order, 300 pM, 200 pM and 300 pM.
The like results for `Cc1cc2[nH]ncc2c(-c2nc3c4c(nc(OC[C@@]56CCCN5C[C@H](F)C6)nc4c2F)N([C@@H](C)c2cc(F)cnc2N)[C@@H](C)CO3)c1C(F)(F)F` [Compound 364] were, in that order, above 100000 pM, above 100000 pM and above 100000 pM.
As for `Cc1c(F)c(N)cc(-c2nc3c4c(nc(OC[C@@]56CCCN5C[C@H](F)C6)nc4c2F)N([C@H](C)c2cc(F)cnc2N)[C@@H](C)CO3)c1C(F)(F)F` [Compound 365], the figures for the IC50 in assay [1], in assay [2] and in assay [3] were 1000 pM, 200 pM and 1000 pM, respectively.
Regarding `Cc1c(F)c(N)cc(-c2nc3c4c(nc(OC[C@@]56CCCN5C[C@H](F)C6)nc4c2F)N([C@@H](C)c2cc(F)cnc2N)[C@@H](C)CO3)c1C(F)(F)F` [Compound 366], the IC50 in assay [1], in assay [2] and in assay [3] was above 100000 pM in each case.
Consider `CC(c1cc(F)cnc1N)N1c2nc(OC[C@@]34CCCN3C[C@H](F)C4)nc3c(F)c(-c4c5cn[nH]c5cc5cccc(F)c45)nc(c23)OC[C@@H]1C` (stereo partly drawn) [Compound 367], for which the concentration for half-maximal inhibition (IC50) in assay [1] was 1000 pM; in assay [2], 200 pM; in assay [3], 400 pM.
In the case of `Cc1c(C(F)(F)F)c(-c2nc3c4c(nc(OC[C@@]56CCCN5C[C@H](F)C6)nc4c2F)N(C(C)c2cc(F)cnc2N)[C@@H](C)CO3)c2cn[nH]c2c1F` (stereo partly drawn) [Compound 368], the IC50 stood at 600 pM in assay [1], 300 pM in assay [2] and 300 pM in assay [3].
With `CC(c1cccnc1N)N1c2nc(OC[C@@]34CCCN3C[C@H](F)C4)nc3c(F)c(-c4c5cn[nH]c5cc5ccc(F)c(F)c45)nc(c23)OC[C@@H]1C` (stereo partly drawn) [Compound 369], the IC50 in assay [1] worked out at 400 pM; in assay [2], 200 pM; in assay [3], 200 pM.
As to `CC(c1cccnc1N)N1c2nc(OC[C@@]34CCCN3C[C@H](F)C4)nc3c(F)c(-c4c5c(cc6[nH]ncc46)CCC5(F)F)nc(c23)OC[C@@H]1C` (stereo partly drawn) [Compound 370], the IC50 was found to be 2000 pM in assay [1], 1000 pM in assay [2] and 3000 pM in assay [3].
Regarding `CC(c1cccnc1N)N1c2nc(OC[C@@]34CCCN3C[C@H](F)C4)nc3c(F)c(-c4cc(F)cc5c4C(F)(F)CC5)nc(c23)OC[C@@H]1C` (stereo partly drawn) [Compound 371], the IC50 was 57000 pM in assay [1], 3000 pM in assay [2] and 11000 pM in assay [3].
The like results for `Cc1cc2[nH]ncc2c(-c2nc3c4c(nc(OC[C@@]56CCCN5C[C@H](F)C6)nc4c2F)N(C(C)c2cccnc2N)CCO3)c1C(F)(F)F` (stereo partly drawn) [Compound 372] were, in that order, 4000 pM, 300 pM and 800 pM.
The like results for `CC(c1cccnc1N)N1c2nc(OC[C@@]34CCCN3C[C@H](F)C4)nc3c(F)c(-c4c5c(cc6[nH]ncc46)CC=C5F)nc(c23)OC[C@@H]1C` (stereo partly drawn) [Compound 374] were, in that order, 1000 pM, 600 pM and 2000 pM.
In the same order, the values of `CC(c1cccnc1N)N1c2nc(OC[C@@]34CCCN3C[C@H](F)C4)nc3c(F)c(-c4c5cccnc5cc5[nH]ncc45)nc(c23)OC[C@@H]1C` (stereo partly drawn) [Compound 375] are above 100000 pM, 8000 pM and 94000 pM.
As for `CC(c1cccnc1N)N1c2nc(OC[C@@]34CCCN3C[C@H](F)C4)nc3c(F)c(-c4c5c(cc6[nH]ncc46)CCC(F)(F)C5)nc(c23)OC[C@@H]1C` (stereo partly drawn) [Compound 376], the IC50 came to 4000 pM in assay [1], 400 pM in assay [2] and 1000 pM in assay [3].
Regarding `Cc1cc2[nH]nc(C)c2c(-c2nc3c4c(nc(OC[C@@]56CCCN5C[C@H](F)C6)nc4c2F)N(C(C)c2cccnc2N)[C@@H](C)CO3)c1C(F)(F)F` (stereo partly drawn) [Compound 377], the figures for the IC50 in assay [1], in assay [2] and in assay [3] were 2000 pM, 2000 pM and 5000 pM, respectively.
Turning to `Cc1cc2[nH]nc(C)c2c(-c2nc3c4c(nc(OC[C@@]56CCCN5C[C@H](F)C6)nc4c2F)N(C(C)c2cccnc2N)[C@@H](C)CO3)c1C(F)(F)F` (stereo partly drawn) [Compound 378], the results for the IC50 in assay [1], in assay [2] and in assay [3] were 200 pM, 200 pM and 600 pM, respectively.
As to `Cc1c(C(F)(F)F)c(-c2nc3c4c(nc(OC[C@@]56CCCN5C[C@H](F)C6)nc4c2F)N(C(C)c2cccnc2N)[C@@H](C)CO3)c2c(C)n[nH]c2c1F` (stereo partly drawn) [Compound 379], the figures for the IC50 in assay [1], in assay [2] and in assay [3] were 100 pM, 200 pM and 300 pM, respectively.
In the same order, the values of `Cc1c(C(F)(F)F)c(-c2nc3c4c(nc(OC[C@@]56CCCN5C[C@H](F)C6)nc4c2F)N(C(C)c2cccnc2N)[C@@H](C)CO3)c2c(C)n[nH]c2c1F` (stereo partly drawn) [Compound 380] are 1000 pM, 1000 pM and 2000 pM.
In the same order, the values of `Cc1c(C(F)(F)F)c(-c2nc3c4c(nc(OC[C@@]56CCCN5C[C@H](F)C6)nc4c2F)N(C(C)c2cccnc2N)[C@@H](C)CO3)c2c(Cl)n[nH]c2c1F` (stereo partly drawn) [Compound 381] are 200 pM, 200 pM and 400 pM.
In the same order, the values of `Cc1c(C(F)(F)F)c(-c2cc3nc(OC[C@@]45CCCN4C[C@H](F)C5)nc4c3c(n2)OC[C@H](C)N4C(C)c2cccnc2N)c2c(C)n[nH]c2c1F` (stereo partly drawn) [Compound 383] are 400 pM, 500 pM and 400 pM.
Take `Cc1cc2[nH]nc(C)c2c(-c2cc3nc(OC[C@@]45CCCN4C[C@H](F)C5)nc4c3c(n2)OC[C@H](C)N4C(C)c2cccnc2N)c1C(F)(F)F` (stereo partly drawn) [Compound 385]: the IC50 came to 400 pM in assay [1], 700 pM in assay [2] and 2000 pM in assay [3].
The like results for `CC(c1cccnc1N)N1c2nc(OC[C@@]34CCCN3C[C@H](F)C4)nc3cc(-c4c5ccccc5cc5[nH]ncc45)nc(c23)OC[C@@H]1C` (stereo partly drawn) [Compound 386] were, in that order, 6000 pM, 400 pM and 700 pM.
The like results for `CC[C@H]1COc2nc(-c3c(C(F)(F)F)c(C)cc4[nH]ncc34)c(F)c3nc(OC[C@@]45CCCN4C[C@H](F)C5)nc(c23)N1C(C)c1cccnc1N` (stereo partly drawn) [Compound 387] were, in that order, 17000 pM, 2000 pM and 5000 pM.
In the same order, the values of `Cc1cc2[nH]ncc2c(-c2nc3c4c(nc(OC[C@@]56CCCN5C[C@H](F)C6)nc4c2F)N(C(C)c2cccnc2N)[C@H]2CCOC[C@@H]2O3)c1C(F)(F)F` (stereo partly drawn) [Compound 388] are above 100000 pM, above 100000 pM and above 100000 pM.
